Several values for one entry are separate records, joined by “and”; a condition that tells them apart may be missing. Equal values may be shown once. Entries after “also recorded” stand apart in the source; their conditions may differ.
Columns and labels:
B cells = details: mice; cited from earlier work
anti-dsDNA antibodies = assay: Anti-dsDNA antibody levels (Farr assay), Phase III study; format: in vivo, human; details: for Frequency of patients with sustained reductions in anti-dsDNA antibodies compared with placebo: Phase III (90-09), sustained = at least 10% below baseline for at least 2/3 of values
Procedure: Two studies (Phase II/III or 90-05, and Phase III or 90-09) were conducted as described in Examples 1-2 and 12. […] Patients completed the SF-36® assessment at entry, followed by three additional time points in the trial depending on how long they participated. […] The Phase II/III trial enrolled 198 lupus patients with high-affinity antibodies who were treated for up to 18 months.
Patients selection, duration of treatment, assay type were in these studies are further detailed in Table 5. All laboratory values were determined at a central laboratory. Baseline anti-dsDNA antibody levels were calculated as the mean of the last 2 determinations prior to initial administration of the study drug. Baseline values for all other laboratory measures were determined immediately before administration of the study drug. The upper limit of normal for the anti-dsDNA antibody assay at the central laboratory was 5 IU/ml.
(Sustained reduction of 10% was based on the percent coefficient of variation of the Farr assay as reported in the assay labeling. At least ⅔ of observations were required to meet this criterion to assure the majority of values were represented for a patient.) All anti-dsDNA antibody values collected were used to determine if a patient met the criterion for sustained reduction. Anti-dsDNA antibody values subsequent to HDCC were considered treatment failures and these values were imputed to have a value equivalent to baseline.

anti-dsDNA = details: patients with SLE; cited from earlier work
SLE patients = assay: SF-36 health-related quality of life, Phase II/III (90-05) trial of LJP 394 vs placebo; format: in vivo, human; details: for Longitudinal Role Emotional and MCS scores vs placebo: available data only
Procedure: Patients were excluded if they had evidence of a renal flare within three months of screening; were receiving prednisone or prednisone equivalent >20 mg/day, azathioprine >200 mg/day, methotrexate >25 mg/wk and/or cyclophosphamide at any dose within three months of screening; or a serum creatinine level ≧2.5 mg/dL. The study was conducted in the US and Europe according to Good Clinical Practices and all patients provided voluntary informed consent.
A pharmacodynamic assay has been developed to measure the binding affinity of patients' anti-dsDNA antibodies to LJP 394 (Sem D S, et al. (1999) Arch Biochem Biophys 372:62-8; McNeeley Pa., et al. (2001) Lupus 10:526-532). The assay measures the binding of the total serum immunoglobulin G [IgG] fraction to the dsDNA epitope on LJP 394. Binding of IgG to the LJP 394 epitope is measured using surface plasmon resonance and the concentration required to reach half maximal binding is determined. This concentration defines the apparent Kd′ of the binding interaction and reflects the titer-weighted average affinity of the patient's IgG fraction for the LJP 394 epitope. Using this assay, patients were segregated into “high affinity” and “low affinity” subgroups. The segregation value was selected by comparing the affinity measured before exposure to LJP 394 with that following 16 weekly treatments with LJP 394 100 mg or placebo. The high-affinity (HA) population was defined as those patients with antibody binding affinities [Kd′]≦0.8 mg/mL pre-treatment.
In this double-blind, randomized controlled, multicenter trial, intravenously administered LJP 394 was compared with placebo in SLE patients with prior renal involvement. Patients were randomized to receive LJP 394 100 mg as a 2 ml bolus intravenous injection on a weekly basis or placebo for 76 weeks. After initiation of the trial, the protocol was amended to include 8 week off treatment periods alternating with 12 weekly treatments with 50 mg (1 ml bolus injection) LJP 394 or placebo. The first 16 weeks, when patients received 100 mg LJP 394 or placebo weekly, was considered the ‘induction period’, followed by ‘maintenance,’ when patients alternated 8 off and 12 weeks on treatment. The 20-week cycles were to be repeated three times for a total of 60 weeks.
The primary endpoint was the time to a documented renal flare, defined as reproducible increases from baseline in 24-hr proteinuria or serum creatinine >20% or at least 0.3 mg/dL, whichever was greater, accompanied by proteinuria, hematuria and/or red cell casts; or new onset or reproducible increase in hematuria accompanied by either an increase in 24-hr proteinuria or new red cell casts. Secondary outcome measures included the number of renal flares, time to institution of therapy with high dose corticosteroids (HDCC) and/or cyclophosphamide, incidence of treatment with HDCC and/or cyclophosphamide, and number of major SLE flares. HDCC was defined as an increase in oral, intravenous or intramuscular prednisone (or prednisone equivalent) greater than or equal to 15 mg per day from baseline to a dose greater than 20 mg per day for more than two days or any dose exceeding 200 mg in a single day. Topical, intra-articular, intra-lesional, or intra-ocular corticosteroid administration was excluded.
As a secondary objective, the SF-36 was included in the protocol for analysis, on an exploratory basis, to evaluate and interpret changes in health-related quality of life with active treatment compared with placebo. An additional secondary objective was to evaluate changes in health-related quality of life before and after a documented renal flare, with or without prior treatment with HDCC. The SF-36 was administered at baseline and weeks 16, 24, 36, 44, 56, 64, 76, or at early treatment withdrawal. All patients with a baseline and at least one post treatment health-related quality of life assessment were included in the analyses. […]

[1] = High Affinity, no flares, induction phase
[2] = High affinity population, baseline (pre-treatment)
[3] = High affinity population, baseline to Week 16
[4] = ITT population, baseline (pre-treatment)
[5] = ITT population, baseline to Week 16
[6] = ITT, no flares, induction phase
[7] = Phase II/III, before renal flare
[8] = active treatment, pre vs post renal flare
[9] = patients with documented renal flare (n=37), before flare

## abetimus sodium (sense GTGTGTGTGTGTGTGTGTGT; antisense CACACACACACACACACACA; sense: DNA, backbone not given here; antisense: DNA, backbone and methylation of C not given here; four deoxynucleotide duplexes bound to triethylene glycol valency platform) [LJP 394, tetravalent conjugate: four (CA)10.(TG)10 double-stranded 20-mer oligonucleotides on a triethylene glycol based valency platform]
B cells
  Induction of antigen-specific B-cell tolerance: induce antigen-specific B-cell tolerance
anti-dsDNA antibodies; Phase III
  # Patients with sustained reduction: 80
  # Patients, Other (no sustained reduction): 65
anti-dsDNA antibodies
  Frequency of patients with sustained reductions in anti-dsDNA antibodies compared with placebo: higher frequency; also recorded: Four times as many; also recorded: Twice as many; also recorded: more frequent
anti-dsDNA antibodies; listed as LJP394
  Frequency of patients with sustained reductions in anti-dsDNA antibodies compared with placebo: Twice as many
anti-dsDNA antibodies; Phase III, p<0.0001
  Change in anti-dsDNA antibodies from baseline compared with placebo: statistically significant decrease
anti-dsDNA
  Effect on anti-dsDNA titers: selectively reduces anti-dsDNA titers
SLE patients; [1]
  Difference in Role Emotional change scores between treatment groups: 13.2
  Difference in Social Functioning change scores between treatment groups: 5.5
SLE patients; [2]
  SF-36 MCS Baseline Mean: 48.21
  SF-36 PCS Baseline Mean: 41.13
SLE patients; [3]
  Difference between MCS change scores, active vs placebo: 2.2 points
  Difference in Role Emotional change scores, active vs placebo: 15.9 points
  Difference in Role Physical change scores, active vs placebo: 8.5 points
  Difference in Social Functioning change scores, active vs placebo: 5.0
  Magnitude of differences between active and placebo on Role Physical: 4.4 points
  Mean change in SF-36 Social Functioning score: 4.9 points
  SF-36 MCS Mean % Change: 6.10%
  SF-36 MCS Mean Change: 1.49
  SF-36 PCS Mean % Change: 7.17%
  SF-36 PCS Mean Change: 1.88
SLE patients; ITT population, Week 16
  Patients reporting improvements in Role Emotional scores greater than the MCID: 24.2%
SLE patients; [4]
  Baseline Role Emotional score: 69.1
  SF-36 MCS Baseline Mean: 48.9 and 48.91
  SF-36 PCS Baseline Mean: 41.0 and 41.03
SLE patients; [5]
  Difference in MCS change, active vs placebo: 2.1
  Difference in Role Emotional change scores, active vs placebo: 15.8 points
  Difference in Role Physical change scores, active vs placebo: 8.9 points
  SF-36 MCS Mean % Change: 5.53%
  SF-36 MCS Mean Change: 1.29
  SF-36 PCS Mean % Change: 6.70%
  SF-36 PCS Mean Change: 1.76
SLE patients; ITT, induction phase (16 weeks)
  Difference in Social Functioning change scores between treatment groups: 4.7
SLE patients; ITT, no HDCC, induction phase
  Difference in Role Emotional change scores between treatment groups: 9.7
  Difference in Social Functioning change scores between treatment groups: 5.9
SLE patients; [6]
  Difference in Role Emotional change scores between treatment groups: 12.3
  Difference in Social Functioning change scores between treatment groups: 5.0
SLE patients; Phase II/III, after renal flare
  Mean SF-36 domain scores after renal flare compared with placebo: remained better than placebo patients; also recorded: higher for LJP394-treated patients in all domains
SLE patients; [7]
  Mean SF-36 Pain domain score before renal flare: 60.13
  Mean SF-36 domain scores before renal flare compared with placebo: better scores than placebo in all domains except pain
SLE patients; Phase II/III, before renal flare, listed as LJP394
  Mean SF-36 domain scores before renal flare compared with placebo: higher for LJP394-treated patients in all domains except pain
SLE patients; Phase II/III, pre vs post renal flare
  SF-36 domain score changes pre/post renal flare compared with placebo: stabilization or improvement in all but one domain
SLE patients; Phase II/III, pre vs post renal flare, listed as LJP394
  SF-36 domain score changes pre/post renal flare compared with placebo: all eight domains were more favorable; also recorded: all 8 domains were more favorable
SLE patients; [8]
  Change in Bodily Pain domain score before to after documented renal flare: 12.3 points
  Change in Role Emotional domain score before to after documented renal flare: 2.1
  Change in Social Functioning domain score before to after documented renal flare: 2.3
  Change in Vitality domain score before to after documented renal flare: 4.1
SLE patients; after the 16 week induction phase
  Longitudinal Role Emotional and MCS scores vs placebo: marked improvement
SLE patients; by week 36 of treatment
  Longitudinal Role Emotional and MCS scores vs placebo: comparable between the two groups
SLE patients; patients with data pre- and post-renal flares
  Role Emotional scores difference, LJP 394 versus placebo: 20.2 points
SLE patients; [9]
  Pre-flare difference between treatment groups in MCS summary score: 4.1 points
  Pre-flare difference between treatment groups in Role Emotional score: 15.0 points
  Pre-flare difference between treatment groups in Vitality score: 9.5 points
SLE patients; patients with documented renal flare, post-flare
  Post-flare difference in Role Emotional scores favoring active treatment: 37.7 points

From patent US20040208864A1, “Methods of improving health-related quality of life in individuals with systemic lupus erythematosus” (priority 2002, published 2004)
